Results reported in patent EP4603105A1, “PHARMACEUTICAL COMPOSITION CONTAINING CYCLIC COMPOUND HAVING SELECTIVE KRAS INHIBITORY EFFECT AGAINST HRAS AND NRAS” (CHUGAI SEIYAKU KABUSHIKI KAISHA, priority 2022, dated 2024).
*1 amine or outer side, *2 acyl side, *3 side chain or, on linkers, in order; H or OH if unused. Where a SMILES comes first, the peptide text is derived from it. Bridges are numbered along the chain shown (N, C = ends). [ ]: non-standard residue; d: D form. The star is where a group is joined. hPhe(3-Cl-4-CF3) = N[C@@H](CCc1ccc(C(F)(F)F)c(Cl)c1)C(=O)O; NPrPhe(4-CF3) = CCCN[C@@H](Cc1ccc(C(F)(F)F)cc1)C(=O)O; X40 = Cc1ccc(C[C@@H](C(=O)[*:2])N(CC(C)C)[*:1])cc1; X41 = CCCN([C@@H](Cc1ccc(OC)cc1)C(=O)[*:2])[*:1]; NMeGly(cPent) = CN[C@H](C(=O)O)C1CCCC1; Hyp = O=C(O)[C@@H]1C[C@@H](O)CN1; NMeD = CN[C@@H](CC(=O)O)C(=O)O; NMeL = CN[C@@H](CC(C)C)C(=O)O; Morpholide = C1CN(*)CCO1; NMeA = CN[C@@H](C)C(=O)O; Ac5c = NC1(C(=O)O)CCCC1; Aze = O=C(O)[C@@H]1CCN1; NEtG = CCNCC(=O)O; Sar = CNCC(=O)O

Tests used:
[1] = molecular target: GDP-bound NRAS wild-type protein (Homo sapiens, UniProt P01111); experiment: Binding to NRAS by surface plasmon resonance (SPR), KD and KD ratio to KRAS
GDP-bound NRAS wild-type protein, sequence (P01111 whole entry): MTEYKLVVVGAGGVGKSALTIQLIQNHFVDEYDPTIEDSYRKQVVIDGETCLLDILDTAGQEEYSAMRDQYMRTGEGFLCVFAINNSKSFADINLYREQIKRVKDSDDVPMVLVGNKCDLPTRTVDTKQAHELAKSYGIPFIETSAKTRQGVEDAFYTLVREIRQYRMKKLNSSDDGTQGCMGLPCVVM
Method in brief: (§1)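 Affinity is measured by surface plasmon resonance at 30°C against captured, GDP-loaded RAS carrying a biotinylated Avi tag. Compounds are titrated by single-cycle kinetics, and KD comes from a 1:1 fit.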

[2] = tested on: human lung cancer strain NCI-H441; assay type: cell-based
Method in brief: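 Readout: […] after the ATP-based reagent. Compound: serial dilutions in dimethyl sulfoxide.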

HRAS wild-type protein = HRAS wild-type protein (Homo sapiens, UniProt P01112); experiment: Binding to HRAS by surface plasmon resonance (SPR), KD and KD ratio to KRAS
HRAS wild-type protein, sequence (P01112 whole entry): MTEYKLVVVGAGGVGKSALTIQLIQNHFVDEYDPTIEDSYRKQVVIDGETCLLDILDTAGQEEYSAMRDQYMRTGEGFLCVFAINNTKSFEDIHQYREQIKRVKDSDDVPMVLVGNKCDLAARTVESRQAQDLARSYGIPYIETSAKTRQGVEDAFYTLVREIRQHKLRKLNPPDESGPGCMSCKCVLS
Method in brief: as §1

[3] = ratio of KD for GDP-bound NRAS wild-type protein to KD for KRAS
[4] = ratio of KD for HRAS wild-type protein to KD for KRAS

Row | Compound | IC50 [2] [nM] | NRAS /KRAS [1, 3] | HRAS /KRAS (HRAS wild-type protein; [4]) | NRAS /KRAS ([1]; ratio of the KD value with respect to GDP-bound NRAS wild-type protein to the KD value with respect to KRAS) | HRAS /KRAS (HRAS wild-type protein; ratio of the KD value with respect to HRAS wild-type protein to the KD value with respect to KRAS)
1 | CC[C@H](C)[C@@H]1NC(=O)[C@H](CC(C)C)N(C)C(=O)C[C@@H](C(=O)N2CCOCC2)N(C)C(=O)[C@H](C2CCCC2)N(C)C(=O)C2(CCCC2)NC(=O)[C@@H]2CCCN2C(=O)[C@H](CCc2ccc(C(F)(F)F)c(Cl)c2)NC(=O)CN(C)C(=O)[C@H](Cc2ccc(C)cc2)N(CC(C)C)C(=O)CN(C)C(=O)CN(C)C1=O [PP0063] ([NMeL]I[Sar][Sar][X40][Sar][hPhe(3-Cl-4-CF3)]P[Ac5c][NMeGly(cPent)][NMeD]-Morpholide; lactam N-11) | 39.3 | C (A compound having a KD ratio of 0.1 or more and less than 3 is denoted as C) | C (A compound having a KD ratio of 0.1 or more and less than 3 is denoted as C) |  | 
2 | CC[C@H](C)[C@@H]1NC(=O)[C@H](C)N(C)C(=O)C[C@@H](C(=O)N(C)C)N(C)C(=O)[C@H](C2CCCC2)N(C)C(=O)C2(CCC2)NC(=O)[C@@H]2CCCN2C(=O)[C@H](CCc2cc(F)c(C(F)(F)F)c(F)c2)NC(=O)CN(C)C(=O)[C@H](Cc2ccc(C(F)(F)F)cc2)N2CCCCC[C@@H](C2=O)N(C)C(=O)CN(C)C1=O [PP0470] | 51.9 |  |  | B (a compound having 3 or more and less than 10 is denoted as B) | B (a compound having 3 or more and less than 10 is denoted as B)
3 | CCCN1C(=O)[C@@H]2CCN2C(=O)[C@H](C)N(C)C(=O)[C@H]([C@@H](C)CC)NC(=O)[C@H](CC(C)C)N(C)C(=O)C[C@@H](C(=O)N2CCOCC2)N(C)C(=O)[C@H](C2CCCC2)N(C)C(=O)C2(CCCC2)NC(=O)[C@@H]2CCCN2C(=O)[C@H](CCc2ccc(C(F)(F)F)c(Cl)c2)NC(=O)CN(C)C(=O)[C@@H]1Cc1ccc(OC)cc1 [PP0134] ([NMeL]I[NMeA][Aze][X41][Sar][hPhe(3-Cl-4-CF3)]P[Ac5c][NMeGly(cPent)][NMeD]-Morpholide; lactam N-11) | 18.5 | C (A compound having a KD ratio of 0.1 or more and less than 3 is denoted as C) | B (a compound having 3 or more and less than 10 is denoted as B) |  | 
4 | CCO[C@@H]1C[C@H]2C(=O)N[C@]3(C)CCCCCC[C@@H](C(=O)N[C@@H]([C@@H](C)CC)C(=O)N(C)CC(=O)N(C)[C@H]4CCCCN(C4=O)[C@@H](Cc4ccc(C(F)(F)F)cc4)C(=O)N(C)CC(=O)N[C@@H](CCc4cc(F)c(C(F)(F)F)c(F)c4)C(=O)N2C1)N(C)C(=O)C[C@@H](C(=O)N1CCOCC1)N(C)C(=O)[C@H](C1CCCC1)N(C)C3=O [PP0992] | 790 | B (a compound having 3 or more and less than 10 is denoted as B) | B (a compound having 3 or more and less than 10 is denoted as B) |  | 
5 | CCCN1C(=O)CN(C)C(=O)CN(CC)C(=O)[C@H]([C@@H](C)CC)NC(=O)[C@H](CC(C)C)N(C)C(=O)C[C@@H](C(=O)N2CCOCC2)NC(=O)[C@H](C2CCCC2)N(C)C(=O)C2(CCCC2)NC(=O)[C@@H]2C[C@@H](OCC)CN2C(=O)[C@H](CCc2ccc(C(F)(F)F)c(Cl)c2)NC(=O)CN(C)C(=O)[C@@H]1Cc1ccc(C(F)(F)F)cc1 [PP0335] ([NMeL]I[NEtG][Sar][NPrPhe(4-CF3)][Sar][hPhe(3-Cl-4-CF3)][Hyp](Et)[Ac5c][NMeGly(cPent)]D-Morpholide; lactam N-11) | 41.7 | B (a compound having 3 or more and less than 10 is denoted as B) | C (A compound having a KD ratio of 0.1 or more and less than 3 is denoted as C) |  | 

These reach a lower IC50 [2]. Values come first.

Row | IC50 [2] [nM] | Compound | NRAS /KRAS [1, 3] | HRAS /KRAS (HRAS wild-type protein; [4]) | NRAS /KRAS ([1]; ratio of the KD value with respect to GDP-bound NRAS wild-type protein to the KD value with respect to KRAS) | HRAS /KRAS (HRAS wild-type protein; ratio of the KD value with respect to HRAS wild-type protein to the KD value with respect to KRAS)
6 | 7.9 | CCO[C@@H]1C[C@H]2C(=O)NC3(CCCC3)C(=O)N(C)[C@@H](C3CCCC3)C(=O)N(C)[C@H](C(=O)N(C)C)CC(=O)N(C)[C@@H](CC(C)C)C(=O)N[C@@H]([C@@H](C)CC)C(=O)N(C)CC(=O)N(C)[C@H]3C/C=C\CCN(C3=O)[C@@H](Cc3ccc(C(F)(F)F)cc3)C(=O)N(C)CC(=O)N[C@@H](CCc3ccc(C(F)(F)F)c(Cl)c3)C(=O)N2C1 [PP2838] | AA (a compound having 20 or more is denoted as AA) | A (a compound having 10 or more and less than 20 is denoted as A) |  | 
7 | 2.9 | CCC(CC)[C@H]1C(=O)N(C)[C@H](C(=O)N(C)C)CC(=O)N(C)[C@H]2CCC/C=C/c3ccc(cc3)C[C@@H](C(=O)N(C)CC(=O)N[C@@H](CCc3cc(F)c(C(F)(F)F)c(F)c3)C(=O)N3CCC[C@H]3C(=O)NC3(CC(C)(C)C3)C(=O)N1C)N1CC/C=C\C[C@@H](C1=O)N(C)C(=O)CN(C)C(=O)[C@H]([C@@H](C)CC)NC2=O [PP2600] | A (a compound having 10 or more and less than 20 is denoted as A) | A (a compound having 10 or more and less than 20 is denoted as A) |  | 
